Experimental data reported in US20130338106A1, “COMPOUNDS INHIBITING LEUCINE-RICH REPEAT KINASE ENZYME ACTIVITY” (priority 2011, published 2013).

How the values were obtained:
Assay type in all cases: biochemical
Details in all cases: tested at 10 uM, read-out: percent inhibition of the kinase activity
CLK2 = molecular target: T1, CLK2 (Homo sapiens, UniProt P49760); assay: ProfilerPro Kinase Selectivity, CLK2
T1 construct: purchased Caliper LifeSciences
Procedure: (§1) Kinome selectivity profiling was performed using two example compounds according to the manufacturer's instructions using Caliper LifeSciences' ProfilerPro Kinase Selectivity Assay Kits. Compounds prepared in Examples 1 and 7 were tested at 10 uM and data were recorded using the Caliper LabChip® EZ Reader™. Each compounds' percent inhibition of the kinase activity measured in this manner is reported in the following lists.

FGFR2 N549H = molecular target: T2, FGFR2 N549H (Homo sapiens, UniProt P21802, N549H); assay: ProfilerPro Kinase Selectivity, FGFR2 N549H
T2 construct: purchased Caliper LifeSciences
Procedure: as §1

CK1E = molecular target: T3, CK1E (Homo sapiens, UniProt P49674); assay: ProfilerPro Kinase Selectivity, CK1E
T3 construct: purchased Caliper LifeSciences
Procedure: as §1

FGFR1 V561M = molecular target: T4, FGFR1 V561M (Homo sapiens, UniProt P11362, V561M); assay: ProfilerPro Kinase Selectivity, FGFR1 V561M
T4 construct: purchased Caliper LifeSciences
Procedure: as §1

JAK2 = molecular target: T5, JAK2 (Homo sapiens, UniProt O60674); assay: ProfilerPro Kinase Selectivity, JAK2
T5 construct: purchased Caliper LifeSciences
Procedure: as §1

PHKG1 = molecular target: T6, PHKG1 (Homo sapiens, UniProt Q16816); assay: ProfilerPro Kinase Selectivity, PHKG1
T6 construct: purchased Caliper LifeSciences
Procedure: as §1

ROS = molecular target: T7, ROS (Homo sapiens, UniProt P08922); assay: ProfilerPro Kinase Selectivity, ROS
T7 construct: purchased Caliper LifeSciences
Procedure: as §1

P38G = molecular target: T8, P38G (Homo sapiens, UniProt P53778); assay: ProfilerPro Kinase Selectivity, P38G
T8 construct: purchased Caliper LifeSciences
Procedure: as §1

EGFR T790M = molecular target: T9, EGFR T790M (Homo sapiens, UniProt P00533, T790M); assay: ProfilerPro Kinase Selectivity, EGFR T790M
T9 construct: purchased Caliper LifeSciences
Procedure: as §1

CAMK4 = molecular target: T10, CAMK4 (Homo sapiens, UniProt Q16566); assay: ProfilerPro Kinase Selectivity, CAMK4
T10 construct: purchased Caliper LifeSciences
Procedure: as §1

PAK3 = molecular target: T11, PAK3 (Homo sapiens, UniProt O75914); assay: ProfilerPro Kinase Selectivity, PAK3
T11 construct: purchased Caliper LifeSciences
Procedure: as §1

NTRK2 = molecular target: T12, NTRK2 (Homo sapiens, UniProt Q16620); assay: ProfilerPro Kinase Selectivity, NTRK2
T12 construct: purchased Caliper LifeSciences
Procedure: as §1

ABL = molecular target: T13, ABL (Homo sapiens, UniProt P00519); assay: ProfilerPro Kinase Selectivity, ABL
T13 construct: purchased Caliper LifeSciences
Procedure: as §1

SRC = molecular target: T14, SRC (Homo sapiens, UniProt P12931); assay: ProfilerPro Kinase Selectivity, SRC
T14 construct: purchased Caliper LifeSciences
Procedure: as §1

MAPKAPK5 = molecular target: T15, MAPKAPK5 (Homo sapiens, UniProt Q8IW41); assay: ProfilerPro Kinase Selectivity, MAPKAPK5
T15 construct: purchased Caliper LifeSciences
Procedure: as §1

PAK4 = molecular target: T16, PAK4 (Homo sapiens, UniProt O96013); assay: ProfilerPro Kinase Selectivity, PAK4
T16 construct: purchased Caliper LifeSciences
Procedure: as §1

ARG = molecular target: T17, ARG (Homo sapiens, UniProt P42684); assay: ProfilerPro Kinase Selectivity, ARG
T17 construct: purchased Caliper LifeSciences
Procedure: as §1

CAMK1D = molecular target: T18, CAMK1D (Homo sapiens, UniProt Q8IU85); assay: ProfilerPro Kinase Selectivity, CAMK1D
T18 construct: purchased Caliper LifeSciences
Procedure: as §1

CK1G1 = molecular target: T19, CK1G1 (Homo sapiens, UniProt Q9HCP0); assay: ProfilerPro Kinase Selectivity, CK1G1
T19 construct: purchased Caliper LifeSciences
Procedure: as §1

FLT4 = molecular target: T20, FLT4 (Homo sapiens, UniProt P35916); assay: ProfilerPro Kinase Selectivity, FLT4
T20 construct: purchased Caliper LifeSciences
Procedure: as §1

RSK2 = molecular target: T21, RSK2 (Homo sapiens, UniProt P51812); assay: ProfilerPro Kinase Selectivity, RSK2
T21 construct: purchased Caliper LifeSciences
Procedure: as §1

CK1D = molecular target: T22, CK1D (Homo sapiens, UniProt P48730); assay: ProfilerPro Kinase Selectivity, CK1D
T22 construct: purchased Caliper LifeSciences
Procedure: as §1

EPHA8 = molecular target: T23, EPHA8 (Homo sapiens, UniProt P29322); assay: ProfilerPro Kinase Selectivity, EPHA8
T23 construct: purchased Caliper LifeSciences
Procedure: as §1

EGFR T790M L858R = molecular target: T24, EGFR T790M L858R (Homo sapiens, UniProt P00533, L858R/T790M); assay: ProfilerPro Kinase Selectivity, EGFR T790M L858R
T24 construct: purchased Caliper LifeSciences
Procedure: as §1

AMPKA2/B1/G1 = molecular target: T25, AMPKA2/B1/G1 (Homo sapiens, UniProt P54646); assay: ProfilerPro Kinase Selectivity, AMPKA2/B1/G1
T25 construct: purchased Caliper LifeSciences
Procedure: as §1

LOK = molecular target: T26, LOK (Homo sapiens, UniProt O94804); assay: ProfilerPro Kinase Selectivity, LOK
T26 construct: purchased Caliper LifeSciences
Procedure: as §1

DAPK1 = molecular target: T27, DAPK1 (Homo sapiens, UniProt P53355); assay: ProfilerPro Kinase Selectivity, DAPK1
T27 construct: purchased Caliper LifeSciences
Procedure: as §1

P38D = molecular target: T28, P38D (Homo sapiens, UniProt O15264); assay: ProfilerPro Kinase Selectivity, P38D
T28 construct: purchased Caliper LifeSciences
Procedure: as §1

DCAMKL1 = molecular target: T29, DCAMKL1 (Homo sapiens, UniProt O15075); assay: ProfilerPro Kinase Selectivity, DCAMKL1
T29 construct: purchased Caliper LifeSciences
Procedure: as §1

IGF1R = molecular target: T30, IGF1R (Homo sapiens, UniProt P08069); assay: ProfilerPro Kinase Selectivity, IGF1R
T30 construct: purchased Caliper LifeSciences
Procedure: as §1

INSR = molecular target: T31, INSR (Homo sapiens, UniProt P06213); assay: ProfilerPro Kinase Selectivity, INSR
T31 construct: purchased Caliper LifeSciences
Procedure: as §1

MST2 = molecular target: T32, MST2 (Homo sapiens, UniProt Q13188); assay: ProfilerPro Kinase Selectivity, MST2
T32 construct: purchased Caliper LifeSciences
Procedure: as §1

FER = molecular target: T33, FER (Homo sapiens, UniProt P16591); assay: ProfilerPro Kinase Selectivity, FER
T33 construct: purchased Caliper LifeSciences
Procedure: as §1

MARK1 = molecular target: T34, MARK1 (Homo sapiens, UniProt Q9P0L2); assay: ProfilerPro Kinase Selectivity, MARK1
T34 construct: purchased Caliper LifeSciences
Procedure: as §1

PAK5 = molecular target: T35, PAK5 (Homo sapiens, UniProt Q9P286); assay: ProfilerPro Kinase Selectivity, PAK5
T35 construct: purchased Caliper LifeSciences
Procedure: as §1

PKACA = molecular target: T36, PKACA (Homo sapiens, UniProt P17612); assay: ProfilerPro Kinase Selectivity, PKACA
T36 construct: purchased Caliper LifeSciences
Procedure: as §1

IKKB = molecular target: T37, IKKB (Homo sapiens, UniProt O14920); assay: ProfilerPro Kinase Selectivity, IKKB
T37 construct: purchased Caliper LifeSciences
Procedure: as §1

KIT T670I = molecular target: T38, KIT T670I (Homo sapiens, UniProt P10721, T670I); assay: ProfilerPro Kinase Selectivity, KIT T670I
T38 construct: purchased Caliper LifeSciences
Procedure: as §1

T21 sequence (P51812 whole entry, species assumed): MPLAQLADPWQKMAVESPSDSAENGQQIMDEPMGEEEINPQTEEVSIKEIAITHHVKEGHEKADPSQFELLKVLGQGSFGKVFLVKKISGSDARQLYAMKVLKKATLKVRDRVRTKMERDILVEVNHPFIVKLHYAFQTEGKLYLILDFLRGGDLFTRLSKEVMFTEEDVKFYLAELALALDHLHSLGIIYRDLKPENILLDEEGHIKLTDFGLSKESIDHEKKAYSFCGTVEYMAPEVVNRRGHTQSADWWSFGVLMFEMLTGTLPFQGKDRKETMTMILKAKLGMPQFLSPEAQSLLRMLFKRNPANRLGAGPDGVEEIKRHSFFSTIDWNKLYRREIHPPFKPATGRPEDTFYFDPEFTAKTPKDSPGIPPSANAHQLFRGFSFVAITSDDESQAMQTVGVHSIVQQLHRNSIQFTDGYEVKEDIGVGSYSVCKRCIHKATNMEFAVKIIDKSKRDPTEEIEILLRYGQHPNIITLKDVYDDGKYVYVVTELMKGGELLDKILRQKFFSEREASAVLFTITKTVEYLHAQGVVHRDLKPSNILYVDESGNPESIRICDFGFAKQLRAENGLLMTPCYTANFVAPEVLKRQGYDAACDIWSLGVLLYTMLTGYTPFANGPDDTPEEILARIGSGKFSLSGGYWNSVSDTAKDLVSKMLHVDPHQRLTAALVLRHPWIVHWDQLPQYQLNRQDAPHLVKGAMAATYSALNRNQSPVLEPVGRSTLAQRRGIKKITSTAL
T17 sequence (P42684 whole entry): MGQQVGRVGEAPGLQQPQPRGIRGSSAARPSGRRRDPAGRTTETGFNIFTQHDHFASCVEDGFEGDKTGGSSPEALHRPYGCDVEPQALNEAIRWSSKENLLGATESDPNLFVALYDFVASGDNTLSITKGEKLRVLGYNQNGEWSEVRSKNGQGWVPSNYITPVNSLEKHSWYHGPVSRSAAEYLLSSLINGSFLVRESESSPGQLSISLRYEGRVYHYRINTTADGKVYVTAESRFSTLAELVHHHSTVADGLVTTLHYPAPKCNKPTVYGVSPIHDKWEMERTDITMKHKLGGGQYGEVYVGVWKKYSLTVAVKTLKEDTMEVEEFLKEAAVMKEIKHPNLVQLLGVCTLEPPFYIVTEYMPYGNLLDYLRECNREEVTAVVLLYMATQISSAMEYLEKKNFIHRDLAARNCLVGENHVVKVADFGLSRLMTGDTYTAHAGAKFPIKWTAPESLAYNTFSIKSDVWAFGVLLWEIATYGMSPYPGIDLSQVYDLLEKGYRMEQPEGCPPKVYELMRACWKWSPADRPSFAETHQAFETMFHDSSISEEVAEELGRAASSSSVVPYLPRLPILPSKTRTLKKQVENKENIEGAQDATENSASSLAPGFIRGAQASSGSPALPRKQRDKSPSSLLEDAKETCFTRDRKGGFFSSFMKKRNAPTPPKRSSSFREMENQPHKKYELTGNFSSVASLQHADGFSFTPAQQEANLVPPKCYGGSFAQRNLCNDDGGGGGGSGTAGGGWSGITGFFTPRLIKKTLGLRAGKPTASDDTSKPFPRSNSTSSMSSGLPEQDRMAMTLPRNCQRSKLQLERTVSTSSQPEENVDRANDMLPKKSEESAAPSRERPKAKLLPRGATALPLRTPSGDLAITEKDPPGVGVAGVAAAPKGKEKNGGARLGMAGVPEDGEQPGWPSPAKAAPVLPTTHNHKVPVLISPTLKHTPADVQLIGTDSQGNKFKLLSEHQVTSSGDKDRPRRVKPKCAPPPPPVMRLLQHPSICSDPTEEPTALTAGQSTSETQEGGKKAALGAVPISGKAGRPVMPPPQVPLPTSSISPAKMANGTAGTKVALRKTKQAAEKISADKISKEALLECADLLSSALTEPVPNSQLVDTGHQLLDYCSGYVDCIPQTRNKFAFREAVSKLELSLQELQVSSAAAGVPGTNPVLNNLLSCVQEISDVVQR
T35 sequence (Q9P286 whole entry): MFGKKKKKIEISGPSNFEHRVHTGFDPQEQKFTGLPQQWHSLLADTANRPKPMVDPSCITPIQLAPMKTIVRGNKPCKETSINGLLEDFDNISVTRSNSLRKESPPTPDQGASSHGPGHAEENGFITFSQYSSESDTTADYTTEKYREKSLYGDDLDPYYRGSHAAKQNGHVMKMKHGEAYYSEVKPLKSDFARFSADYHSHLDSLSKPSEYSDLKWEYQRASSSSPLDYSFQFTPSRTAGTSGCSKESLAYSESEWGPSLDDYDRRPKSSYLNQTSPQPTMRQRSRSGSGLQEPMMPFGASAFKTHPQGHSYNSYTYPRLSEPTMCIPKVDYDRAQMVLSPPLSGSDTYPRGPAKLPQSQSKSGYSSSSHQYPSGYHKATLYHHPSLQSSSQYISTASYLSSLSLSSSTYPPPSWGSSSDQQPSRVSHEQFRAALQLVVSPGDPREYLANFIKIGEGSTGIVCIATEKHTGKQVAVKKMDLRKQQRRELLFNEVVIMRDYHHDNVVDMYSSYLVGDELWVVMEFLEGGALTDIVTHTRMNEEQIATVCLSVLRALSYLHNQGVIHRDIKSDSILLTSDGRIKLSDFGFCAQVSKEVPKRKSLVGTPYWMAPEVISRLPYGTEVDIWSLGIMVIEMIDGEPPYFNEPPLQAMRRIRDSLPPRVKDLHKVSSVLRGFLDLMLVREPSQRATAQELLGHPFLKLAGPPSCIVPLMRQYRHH
T28 sequence (O15264 whole entry): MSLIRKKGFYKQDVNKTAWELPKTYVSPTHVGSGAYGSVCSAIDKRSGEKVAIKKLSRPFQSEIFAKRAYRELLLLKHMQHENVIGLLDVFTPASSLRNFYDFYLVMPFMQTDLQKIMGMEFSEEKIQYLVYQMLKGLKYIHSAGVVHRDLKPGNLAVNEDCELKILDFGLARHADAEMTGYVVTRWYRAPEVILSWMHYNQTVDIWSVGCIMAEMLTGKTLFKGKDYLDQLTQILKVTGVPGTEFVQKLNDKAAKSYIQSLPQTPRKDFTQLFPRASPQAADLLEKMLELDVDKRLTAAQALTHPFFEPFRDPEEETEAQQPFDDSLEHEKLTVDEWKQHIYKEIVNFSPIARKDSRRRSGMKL
T22 sequence (P48730 whole entry): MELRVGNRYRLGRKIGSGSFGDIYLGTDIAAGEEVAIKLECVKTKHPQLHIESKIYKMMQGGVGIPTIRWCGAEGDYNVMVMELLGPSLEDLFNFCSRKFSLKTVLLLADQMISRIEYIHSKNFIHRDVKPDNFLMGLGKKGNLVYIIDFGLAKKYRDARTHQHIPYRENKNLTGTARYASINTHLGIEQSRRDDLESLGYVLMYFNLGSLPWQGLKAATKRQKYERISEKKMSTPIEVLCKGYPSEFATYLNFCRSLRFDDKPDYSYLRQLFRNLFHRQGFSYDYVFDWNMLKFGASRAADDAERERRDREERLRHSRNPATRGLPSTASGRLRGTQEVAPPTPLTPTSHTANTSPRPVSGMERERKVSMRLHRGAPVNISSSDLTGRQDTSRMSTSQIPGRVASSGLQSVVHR
T31 sequence (P06213 28-1382, species assumed): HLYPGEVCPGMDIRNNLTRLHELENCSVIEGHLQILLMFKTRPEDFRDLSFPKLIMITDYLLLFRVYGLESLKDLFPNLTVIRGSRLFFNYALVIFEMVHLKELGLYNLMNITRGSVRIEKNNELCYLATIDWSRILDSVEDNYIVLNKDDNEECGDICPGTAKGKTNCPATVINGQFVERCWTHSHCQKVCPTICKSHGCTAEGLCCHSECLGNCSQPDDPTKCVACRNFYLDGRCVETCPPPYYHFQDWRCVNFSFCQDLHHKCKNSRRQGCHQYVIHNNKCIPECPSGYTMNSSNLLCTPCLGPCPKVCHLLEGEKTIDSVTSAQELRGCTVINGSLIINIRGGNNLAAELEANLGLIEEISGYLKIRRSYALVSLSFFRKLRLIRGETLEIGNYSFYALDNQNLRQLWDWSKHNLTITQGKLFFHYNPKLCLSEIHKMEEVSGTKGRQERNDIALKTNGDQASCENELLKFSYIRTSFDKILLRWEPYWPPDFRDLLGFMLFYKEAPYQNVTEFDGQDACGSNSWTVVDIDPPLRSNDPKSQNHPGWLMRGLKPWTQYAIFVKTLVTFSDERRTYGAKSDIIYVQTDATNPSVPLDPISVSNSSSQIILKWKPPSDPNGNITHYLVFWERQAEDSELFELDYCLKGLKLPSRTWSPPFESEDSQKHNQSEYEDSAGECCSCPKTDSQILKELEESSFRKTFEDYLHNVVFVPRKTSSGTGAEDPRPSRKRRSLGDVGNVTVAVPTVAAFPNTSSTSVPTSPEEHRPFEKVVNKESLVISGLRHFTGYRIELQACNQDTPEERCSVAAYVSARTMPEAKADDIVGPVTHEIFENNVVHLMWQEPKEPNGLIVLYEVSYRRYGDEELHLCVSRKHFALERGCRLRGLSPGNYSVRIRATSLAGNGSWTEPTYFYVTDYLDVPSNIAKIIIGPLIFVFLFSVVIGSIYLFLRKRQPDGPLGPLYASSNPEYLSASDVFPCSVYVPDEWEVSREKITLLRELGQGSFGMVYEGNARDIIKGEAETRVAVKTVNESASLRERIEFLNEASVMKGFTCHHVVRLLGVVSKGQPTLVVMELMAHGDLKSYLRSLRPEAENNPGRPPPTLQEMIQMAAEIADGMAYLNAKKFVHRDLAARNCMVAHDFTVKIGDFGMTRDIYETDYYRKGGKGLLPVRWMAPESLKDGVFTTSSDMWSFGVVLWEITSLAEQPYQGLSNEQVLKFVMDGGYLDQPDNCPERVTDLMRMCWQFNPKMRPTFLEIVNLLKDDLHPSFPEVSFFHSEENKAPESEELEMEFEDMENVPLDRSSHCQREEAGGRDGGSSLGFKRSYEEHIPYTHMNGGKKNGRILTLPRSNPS

| SMILES | inhibition at 10 µM (CLK2) [%] | inhibition at 10 µM (FGFR2 N549H) [%] | inhibition at 10 µM (CK1E) [%] | inhibition at 10 µM (FGFR1 V561M) [%] | inhibition at 10 µM (JAK2) [%] | inhibition at 10 µM (PHKG1) [%] | inhibition at 10 µM (ROS) [%] | inhibition at 10 µM (P38G) [%] | inhibition at 10 µM (EGFR T790M) [%] | inhibition at 10 µM (CAMK4) [%] | inhibition at 10 µM (PAK3) [%] | inhibition at 10 µM (NTRK2) [%] | inhibition at 10 µM (ABL) [%] | inhibition at 10 µM (SRC) [%] | inhibition at 10 µM (MAPKAPK5) [%] | inhibition at 10 µM (PAK4) [%] | inhibition at 10 µM (ARG) [%] | inhibition at 10 µM (CAMK1D) [%] | inhibition at 10 µM (CK1G1) [%] | inhibition at 10 µM (FLT4) [%] | also measured |
| --- | --- | --- | --- | --- | --- | --- | --- | --- | --- | --- | --- | --- | --- | --- | --- | --- | --- | --- | --- | --- | --- |
| CSc1sc(-c2cc[nH]n2)c2c1C(=O)CCC2 [Example 1, 3-(Methylsulfanyl)-1-(1H-pyrazol-3-yl)-6,7-dihydro-2-benzothiophen-4(5H)-one] | 31.3 | 1.4 | 10.9 | 4.4 | 19.4 | 6.3 | 33.7 | 23.3 | 1.8 | 20.1 | -13.1 | 16.9 | 12.7 | 7.3 | 4.4 | 6.1 | -6 | -3.1 | 6.6 | 22.5 | inhibition at 10 µM (RSK2): 5.5%; inhibition at 10 µM (CK1D): 44.6%; inhibition at 10 µM (EPHA8): -0.2%; inhibition at 10 µM (EGFR T790M L858R): 3.9%; inhibition at 10 µM (AMPKA2/B1/G1): -2.7%; inhibition at 10 µM (LOK): 7.5%; inhibition at 10 µM (DAPK1): 7.2%; inhibition at 10 µM (P38D): 4.2%; inhibition at 10 µM (DCAMKL1): -2.5%; inhibition at 10 µM (IGF1R): 5.4%; inhibition at 10 µM (INSR): 3.4%; inhibition at 10 µM (MST2): 12.3%; inhibition at 10 µM (FER): 11.6%; inhibition at 10 µM (MARK1): -2.9%; inhibition at 10 µM (PAK5): -0.6%; inhibition at 10 µM (PKACA): -6%; inhibition at 10 µM (IKKB): 9.3%; inhibition at 10 µM (KIT T670I): 10.6% |
| CC1(C)CC(=O)c2c(SC3CCCC3)sc(-c3cc[nH]n3)c2C1 [Example 7, 3-(Cyclopentylsulfanyl)-6,6-dimethyl-1-(1H-pyrazol-3-yl)-6,7-dihydro-2-benzothiophen-4(5H)-one] | 1.3 | -5.8 | 5.1 | 7.9 | 5.3 | 4.6 | 42.7 | -0.2 | -1.9 | -1.5 | -170 | 7 | 1.9 | 1.5 | 1.9 | -8.9 | 8.6 | 4 | 10.9 | 2 | inhibition at 10 µM (RSK2): 3.5%; inhibition at 10 µM (CK1D): 12.9%; inhibition at 10 µM (EPHA8): -3.8%; inhibition at 10 µM (EGFR T790M L858R): 13.7%; inhibition at 10 µM (AMPKA2/B1/G1): 4.5%; inhibition at 10 µM (LOK): -32.6%; inhibition at 10 µM (DAPK1): -2%; inhibition at 10 µM (P38D): -0.3%; inhibition at 10 µM (DCAMKL1): -2.1%; inhibition at 10 µM (IGF1R): -3.7%; inhibition at 10 µM (INSR): 0.9%; inhibition at 10 µM (MST2): -2.3%; inhibition at 10 µM (FER): -0.2%; inhibition at 10 µM (MARK1): -0.6%; inhibition at 10 µM (PAK5): -4.4%; inhibition at 10 µM (PKACA): -5.4%; inhibition at 10 µM (IKKB): 0.5%; inhibition at 10 µM (KIT T670I): 3% |
